Laboratory results published in PMC7226045, “Ensartinib (X-396) Effectively Modulates Pharmacokinetic Resistance Mediated by ABCB1 and ABCG2 Drug Efflux Transporters and CYP3A4 Biotransformation Enzyme” (Cancers, 2020).

Experiments:
HL60-ABCB1 cells = test: XTT proliferation / drug combination assay, HL60-ABCB1; settings: HL60-ABCB1
Procedure: (§1) The MTT method is not readily adapted for use with suspension cell cultures, therefore the XTT assay was used to assess the proliferation of HL60 cells. Briefly, HL60-par, HL60-ABCB1, HL60-ABCG2, and HL60-ABCC1 cells were seeded at 2 × 10^4 cells/well in 96-well culture plates. Immediately after seeding, dilutions of the tested drugs or drug combinations were added to the cells. The plates were then incubated under standard conditions (37 °C, 5% CO2) for 48 h, after which XTT solution in PBS (1 mg/mL) and phenazine methosulfate (7.50 µg/mL) were added to the cells and the plates were incubated for another 5 h. Finally, the cells’ absorbance was measured at 450 nm using a microplate reader (Infinite M200, Tecan, Salzburg, Austria). This method was used to assess the effect of ABC transporters on sensitivity to ensartinib and in drug combination assays.
(§2) Experiments focusing on the modulation of ABC transporter-mediated resistance were performed as described previously. The parent MDCKII and HL60 cells and their ABCB1-, ABCG2-, and ABCC1-overexpressing counterparts were seeded at the densities specified above onto 96-well culture plates and cultured for 24 h. The medium was subsequently replaced with serial dilutions of ensartinib alone or with various concentrations of a model MDR-susceptible cytostatic agent (daunorubicin or mitoxantrone) with or without 10 µM ensartinib. After 48 h incubation, the cells’ viability was determined as described above. In addition to performing IC50-shift analyses, the viability measurements were converted to FA (fraction of cells affected) values and the effects of drug combinations were quantified using the Chou-Talalay combination index (CI) method as implemented in CompuSyn 3.0.1 (ComboSyn Inc., Paramus, NJ, USA). The effects of concomitantly administered drugs were classified as synergistic (CI < 0.9), additive (0.9 < CI < 1.1), or antagonistic (CI > 1.1) based on the computed CI values.

[1] = as above; settings: human, HL60-ABCB1 cells
Procedure: as §1, §2

ABCG2 = molecular target: T1, ABCG2 (Homo sapiens, UniProt Q9UNQ0); test: hoechst 33342 accumulation assay in MDCKII-ABCG2 cells; format: cell-based; settings: read-out: IC50, inhibition of ABCG2 (hoechst 33342 accumulation)
T1 construct: expressed in transfected cells; host or cells: MDCKII-ABCG2 (from Dr. Alfred Schinkel, The Netherlands Cancer Institute)
T1 sequence (Q9UNQ0 1-655): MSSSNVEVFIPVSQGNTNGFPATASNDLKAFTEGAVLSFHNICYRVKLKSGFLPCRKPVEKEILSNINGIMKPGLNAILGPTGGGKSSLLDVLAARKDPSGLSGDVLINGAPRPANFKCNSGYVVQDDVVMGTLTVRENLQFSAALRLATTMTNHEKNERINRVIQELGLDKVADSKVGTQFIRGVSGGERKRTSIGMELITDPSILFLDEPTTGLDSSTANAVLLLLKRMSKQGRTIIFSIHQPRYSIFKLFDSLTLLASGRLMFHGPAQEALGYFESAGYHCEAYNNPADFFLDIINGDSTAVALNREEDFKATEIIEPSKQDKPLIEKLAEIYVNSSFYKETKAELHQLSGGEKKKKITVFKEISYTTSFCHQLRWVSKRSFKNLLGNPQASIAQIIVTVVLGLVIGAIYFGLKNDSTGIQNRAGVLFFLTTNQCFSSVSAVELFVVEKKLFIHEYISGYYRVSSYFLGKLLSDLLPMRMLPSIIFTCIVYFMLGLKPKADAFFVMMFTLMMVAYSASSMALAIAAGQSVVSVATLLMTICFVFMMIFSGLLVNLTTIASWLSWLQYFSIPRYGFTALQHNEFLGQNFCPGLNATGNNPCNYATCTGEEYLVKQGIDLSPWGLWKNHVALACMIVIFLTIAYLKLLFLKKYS
Procedure: Cellular accumulation assay with hoechst 33342 and calcein AM was performed as described previously. Briefly, MDCKII-par, MDCKII-ABCB1, MDCKII-ABCG2, and MDCKII-ABCC1 cells were seeded at densities of 5.0 × 10^4, 5.0 × 10^4, 5.5 × 10^4, and 6.0 × 10^4 cells/well, respectively, on a transparent 96-well plate and grown to full confluence for 24 h under standard conditions. The cells were then washed twice with 1 × PBS, after which was added either a dilution of ensartinib in Opti-MEM (1, 5, 10, 25, or 50 µM) or a specific inhibitor to act as a positive control (1 µM LY335979, 1 µM Ko143, or 25 µM MK-571 for ABCB1, ABCG2, or ABCC1, respectively). Cells were pre-incubated for 10 min, then 8 µM hoechst 33342 (a model substrate for ABCB1 and ABCG2) or 2 µM calcein AM (ABCC1 substrate) diluted in Opti-MEM was quickly added to all wells other than those containing blank samples. The intracellular levels of the substrates were then determined at 1 min intervals for 30 min using a microplate reader (Infinite M200 Pro, Tecan, Männedorf, Switzerland). Fluorescence was monitored in bottom mode using excitation/emission wavelengths of 350/465 and 485/535 nm for hoechst 33342 and calcein AM, respectively.

IC50 (ABCG2): 9.13 µM
Structure (SMILES): C[C@@H]1CN(C(=O)c2ccc(NC(=O)c3cc(O[C@H](C)c4c(Cl)ccc(F)c4Cl)c(N)nn3)cc2)C[C@H](C)N1 [ensartinib, Ensartinib]
combination effect (Chou-Talalay combination index) (HL60-ABCB1 cells; 10 µM ensartinib with daunorubicin): synergistic (synergistic (CI < 0.9))
RR (reversal ratio) (HL60-ABCB1 cells; daunorubicin, IC50 single drug / IC50 combined with 10 µM ensartinib): 22.1
IC50 at 48 h [1]: 29.6 µM
